Results from US9670147B2, “Antioxidant inflammation modulators: oleanolic acid derivatives with amino and other modifications at C-17” (REATA PHARMACEUTICALS, INC., priority 2008, dated 2017).

Assays:
[1] = system: IFNγ-induced NO production in RAW264.7 macrophages; assay: Suppression of IFNγ-induced NO production (Griess reagent); type: cell-based, mouse; conditions: Mus musculus, 2 h pre-treatment, then 20 ng/ml IFNγ for 24 hours
Experimental: (§1) FIGS. 1-34. Inhibition of NO Production. RAW264.7 macrophages were pre-treated with DMSO or drugs at various concentrations (nM) for 2 hours, then treated with 20 ng/ml IFNγ for 24 hours. NO concentration in media was determined using the Griess reagent system; cell viability was determined using WST-1 reagent. FIGS. 49-52. Inhibition of NO Production. RAW264.7 macrophages were pre-treated with DMSO or drugs at various concentrations (nM) for 2 hours, then treated with 20 ng/ml IFNγ for 24 hours. NO concentration in media was determined using the Griess reagent system; cell viability was determined using WST-1 reagent. RAW264.7 macrophages were pre-treated with DMSO or drugs for 2 hours, then treated with recombinant mouse IFNγ (Sigma) for 24 hours. NO concentration in media was determined using the Griess reagent system (Promega). Cell viability was determined using WST-1 reagent (Roche).

RAW264.7 macrophages = assay: Cell viability, WST-1 reagent; type: cell-based, mouse; conditions: Mus musculus, 2 h pre-treatment, then 20 ng/ml IFNγ for 24 hours
Experimental: as §1

Row | Compound | IC50 [1] [µM] | IC50 (RAW264.7 macrophages) [µM]
1 | CC(=O)N[C@]12CCC(C)(C)C[C@H]1[C@H]1C(=O)C[C@@H]3[C@@]4(C)C=C(C#N)C(=O)C(C)(C)[C@@H]4CC[C@@]3(C)[C@]1(C)CC2 [Compound 63321, N-((4aS,6aR,6bR,8aR,12aR,12bR,14aR,14bS)-11-cyano-2,2,6a,6b,9,9,12a-heptamethyl-10,14-dioxo-1,2,3,4,4a,5,6,6a,6b,7,8,8a,9,10,12a,12b,13,14,14a,14b-icosahydropicen-4a-yl)acetamide] | ~0.07 | 
2 | CC1(C)CC[C@]2(NC(=O)OC3CCOC3)CC[C@]3(C)[C@H](C(=O)C[C@@H]4[C@@]5(C)C=C(C#N)C(=O)C(C)(C)[C@@H]5CC[C@]43C)[C@@H]2C1 (stereo partly drawn) [Compound 63265, tetrahydrofuran-3-yl(4aS,6aR,6bR,8aR,12aR,12bR,14aR,14bS)-11-cyano-2,2,6a,6b,9,9,12a-heptamethyl-10,14-dioxo-1,2,3,4,4a,5,6,6a,6b,7,8,8a,9,10,12a,12b,13,14,14a,14b-icosahydropicen-4a-ylcarbamate] | ~0.1 | > 0.2
3 | CC1(C)CC[C@]2(NCC#N)CC[C@]3(C)[C@H](C(=O)C[C@@H]4[C@@]5(C)C=C(C#N)C(=O)C(C)(C)[C@@H]5CC[C@]43C)[C@@H]2C1 [Compound 63222, (4aR,6aR,6bR,8aS,12aS,12bR,14aR,14bR)-8a-(cyanomethylamino)-4,4,6a,6b,11,11,14b-heptamethyl-3,13-dioxo-3,4,4a,5,6,6a,6b,7,8,8a,9,10,11,12,12a,12b,13,14,14a,14b-icosahydropicene-2-carbonitrile] | ~0.045 | > 0.2
4 | CC1(C)CC[C@]2(NC(=O)Nc3ccc(O)cc3)CC[C@]3(C)[C@H](C(=O)C=C4[C@@]5(C)C=C(C#N)C(=O)C(C)(C)[C@@H]5CC[C@]43C)[C@@H]2C1 [Compound 63148, 1-((4aS,6aR,6bS,8aR,12aS,14aR,14bS)-11-cyano-2,2,6a,6b,9,9,12a-heptamethyl-10,14-dioxo-1,2,3,4,4a,5,6,6a,6b,7,8,8a,9,10,12a,14,14a,14b-octadecahydropicen-4a-yl)-3-(4-hydroxyphenyl)urea] | ~0.025 | > 0.2
5 | COC(=O)N[C@]12CCC(C)(C)C[C@H]1[C@H]1C(=O)C[C@@H]3[C@@]4(C)C=C(C#N)C(=O)C(C)(C)[C@@H]4CC[C@@]3(C)[C@]1(C)CC2 [Compound 63328, methyl (4aS,6aR,6bR,8aR,12aR,12bR,14aR,14bS)-11-cyano-2,2,6a,6b,9,9,12a-heptamethyl-10,14-dioxo-1,2,3,4,4a,5,6,6a,6b,7,8,8a,9,10,12a,12b,13,14,14a,14b-icosahydropicen-4a-ylcarbamate] | ~0.025 | 
6 | CC1(C)CC[C@]2(NC(=O)OCc3ccccc3)CC[C@]3(C)[C@H](C(=O)C=C4[C@@]5(C)C=C(C#N)C(=O)C(C)(C)[C@@H]5CC[C@]43C)[C@@H]2C1 [Compound 63174, benzyl-(4aS,6aR,6bS,8aR,12aS,14aR,14bS)-11-cyano-2,2,6a,6b,9,9,12a-heptamethyl-10,14-dioxo-1,2,3,4,4a,5,6,6a,6b,7,8,8a,9,10,12a,14,14a,14b-octadecahydropicen-4a-ylcarbamate] | 0.026 | 0.08
7 | CN(C)[C@]12CCC(C)(C)C[C@H]1[C@H]1C(=O)C=C3[C@@]4(C)C=C(C#N)C(=O)C(C)(C)[C@@H]4CC[C@@]3(C)[C@]1(C)CC2 [Compound 63245, (4aR,6aS,6bR,8aS,12aS,12bR,14bS)-8a-(dimethylamino)-4,4,6a,6b,11,11,14b-heptamethyl-3,13-dioxo-3,4,4a,5,6,6a,6b,7,8,8a,9,10,11,12,12a,12b,13,14b-octadecahydropicene-2-carbonitrile] | 0.033 | > 0.2
8 | CCN[C@]12CCC(C)(C)C[C@H]1[C@H]1C(=O)C[C@@H]3[C@@]4(C)C=C(C#N)C(=O)C(C)(C)[C@@H]4CC[C@@]3(C)[C@]1(C)CC2 [Compound 63238, (4aR,6aR,6bR,8aS,12aS,12bR,14aR,14bR)-8a-(ethylamino)-4,4,6a,6b,11,11,14b-heptamethyl-3,13-dioxo-3,4,4a,5,6,6a,6b,7,8,8a,9,10,11,12,12a,12b,13,14,14a,14b-icosahydropicene-2-carbonitrile] | ~0.12 | > 0.2
9 | CC1(C)CC[C@]2(NC(=O)Nc3ccccc3)CC[C@]3(C)[C@H](C(=O)C=C4[C@@]5(C)C=C(C#N)C(=O)C(C)(C)[C@@H]5CC[C@]43C)[C@@H]2C1 [Compound 63249, 1-((4aS,6aR,6bS,8aR,12aS,14aR,14bS)-11-cyano-2,2,6a,6b,9,9,12a-heptamethyl-10,14-dioxo-1,2,3,4,4a,5,6,6a,6b,7,8,8a,9,10,12a,14,14a,14b-octadecahydropicen-4a-yl)-3-phenylurea] |  | 0.05
10 | CNC(=O)N[C@]12CCC(C)(C)C[C@H]1[C@H]1C(=O)C[C@@H]3[C@@]4(C)C=C(C#N)C(=O)C(C)(C)[C@@H]4CC[C@@]3(C)[C@]1(C)CC2 [Compound 63327, 1-((4aS,6aR,6bR,8aR,12aR,12bR,14aR,14bS)-11-cyano-2,2,6a,6b,9,9,12a-heptamethyl-10,14-dioxo-1,2,3,4,4a,5,6,6a,6b,7,8,8a,9,10,12a,12b,13,14,14a,14b-icosahydropicen-4a-yl)-3-methylurea] | ~0.1 | 
11 | CC1(C)CC[C@]2(NC(=O)C(F)(F)F)CC[C@]3(C)[C@H](C(=O)C[C@@H]4[C@@]5(C)C=C(C#N)C(=O)C(C)(C)[C@@H]5CC[C@]43C)[C@@H]2C1 [Compound 63322, N-((4aS,6aR,6bR,8aR,12aR,12bR,14aR,14bS)-11-cyano-2,2,6a,6b,9,9,12a-heptamethyl-10,14-dioxo-1,2,3,4,4a,5,6,6a,6b,7,8,8a,9,10,12a,12b,13,14,14a,14b-icosahydropicen-4a-yl)-2,2,2-trifluoroacetamide] | ~0.05 | 

More lines, main results first:

Row | IC50 [1] [µM] | Compound | IC50 (RAW264.7 macrophages) [µM]
12 | 0.0108 | CC(=O)N[C@]12CCC(C)(C)C[C@H]1[C@H]1C(=O)C=C3[C@@]4(C)C=C(C#N)C(=O)C(C)(C)[C@@H]4CC[C@@]3(C)[C@]1(C)CC2 [Compound 63170, N-((4aS,6aR,6bS,8aR,12aS,14aR,14bS)-11-cyano-2,2,6a,6b,9,9,12a-heptamethyl-10,14-dioxo-1,2,3,4,4a,5,6,6a,6b,7,8,8a,9,10,12a,14,14a,14b-octadecahydropicen-4a-yl)acetamide] | > 0.2
13 | 0.016 | CC1(C)CC[C@]2(NC(=O)CC(F)(F)F)CC[C@]3(C)[C@H](C(=O)C=C4[C@@]5(C)C=C(C#N)C(=O)C(C)(C)[C@@H]5CC[C@]43C)[C@@H]2C1 [Compound 63179, N-((4aS,6aR,6bS,8aR,12aS,14aR,14bS)-11-cyano-2,2,6a,6b,9,9,12a-heptamethyl-10,14-dioxo-1,2,3,4,4a,5,6,6a,6b,7,8,8a,9,10,12a,14,14a,14b-octadecahydropicen-4a-yl)-3,3,3-trifluoropropanamide] | 0.1
14 | 0.031 | CCNC(=O)N[C@]12CCC(C)(C)C[C@H]1[C@H]1C(=O)C=C3[C@@]4(C)C=C(C#N)C(=O)C(C)(C)[C@@H]4CC[C@@]3(C)[C@]1(C)CC2 [Compound 63173, 1-((4aS,6aR,6bS,8aR,12aS,14aR,14bS)-11-cyano-2,2,6a,6b,9,9,12a-heptamethyl-10,14-dioxo-1,2,3,4,4a,5,6,6a,6b,7,8,8a,9,10,12a,14,14a,14b-octadecahydropicen-4a-yl)-3-ethylurea] | > 0.2
15 | 0.012 | CC1(C)CC[C@]2(NC(=O)C(F)(F)F)CC[C@]3(C)[C@H](C(=O)C=C4[C@@]5(C)C=C(C#N)C(=O)C(C)(C)[C@@H]5CC[C@]43C)[C@@H]2C1 [Compound 63171, N-((4aS,6aR,6bS,8aR,12aS,14aR,14bS)-11-cyano-2,2,6a,6b,9,9,12a-heptamethyl-10,14-dioxo-1,2,3,4,4a,5,6,6a,6b,7,8,8a,9,10,12a,14,14a,14b-octadecahydropicen-4a-yl)-2,2,2-trifluoroacetamide] | 0.09
16 | 0.01 | CC1(C)CC[C@]2(NC(=O)Cc3ccccc3)CC[C@]3(C)[C@H](C(=O)C=C4[C@@]5(C)C=C(C#N)C(=O)C(C)(C)[C@@H]5CC[C@]43C)[C@@H]2C1 [Compound 63244, N-((4aS,6aR,6bS,8aR,12aS,14aR,14bS)-11-cyano-2,2,6a,6b,9,9,12a-heptamethyl-10,14-dioxo-1,2,3,4,4a,5,6,6a,6b,7,8,8a,9,10,12a,14,14a,14b-octadecahydropicen-4a-yl)-2-phenylacetamide] | 0.2
17 | 0.003 to 0.006 | C=CCOC(=O)N[C@]12CCC(C)(C)C[C@H]1[C@H]1C(=O)C=C3[C@@]4(C)C=C(C#N)C(=O)C(C)(C)[C@@H]4CC[C@@]3(C)[C@]1(C)CC2 [Compound 63186, allyl-(4aS,6aR,6bS,8aR,12aS,14aR,14bS)-11-cyano-2,2,6a,6b,9,9,12a-heptamethyl-10,14-dioxo-1,2,3,4,4a,5,6,6a,6b,7,8,8a,9,10,12a,14,14a,14b-octadecahydropicen-4a-ylcarbamate] | 0.1
18 | 0.007 to 0.013 | CC1(C)CC[C@]2(NC(=O)c3ccccc3)CC[C@]3(C)[C@H](C(=O)C=C4[C@@]5(C)C=C(C#N)C(=O)C(C)(C)[C@@H]5CC[C@]43C)[C@@H]2C1 [Compound 63182, N-((4aS,6aR,6bS,8aR,12aS,14aR,14bS)-11-cyano-2,2,6a,6b,9,9,12a-heptamethyl-10,14-dioxo-1,2,3,4,4a,5,6,6a,6b,7,8,8a,9,10,12a,14,14a,14b-octadecahydropicen-4a-yl)benzamide] | 0.125
19 | 0.0032 | CCOC(=O)N[C@]12CCC(C)(C)C[C@H]1[C@H]1C(=O)C=C3[C@@]4(C)C=C(C#N)C(=O)C(C)(C)[C@@H]4CC[C@@]3(C)[C@]1(C)CC2 [Compound 63168, ethyl-(4aS,6aR,6bS,8aR,12aS,14aR,14bS)-11-cyano-2,2,6a,6b,9,9,12a-heptamethyl-10,14-dioxo-1,2,3,4,4a,5,6,6a,6b,7,8,8a,9,10,12a,14,14a,14b-octadecahydropicen-4a-ylcarbamate] | 0.15
